Laboratory results published in US10918655B2, “Stimulating platelet generation by activating mitochondrial biogenesis” (THE GENERAL HOSPITAL CORPORATION, priority 2016, dated 2021).
One block for each molecule: values may come before it.

How the values were obtained:
[1] = test system: circulating platelet counts; test: circulating platelet counts in mice receiving 5-FU; assay type: in vivo; conditions: on day 4; dose of 150 mg/kg body weight
Description: FIGS. 6A-6D provide graphs showing that LLL alleviates thrombocytopenia induced by anti-CD41 antibody or 5-FU in mice. (A and B) Mice were administered daily with 0.1 mg/kg anti-CD41 antibody over 7 days. LLL was given daily from day 3 to day 7. […] LLL was given daily for 3 consecutive days starting at 4 hr after 5-FU injection. Platelet counts (A and C) were measured daily at 6 hr post-LLL and a tail bleeding time (B and D) was examined on day 5 (B) or day 4 (D). n=6; ns, no significance; and *P<0.05, **P<0.01, ***P<0.001 compared between indicated groups.
We further extended our investigation to ITP precluding that LLL-mediated thrombopoiesis was specific for thrombocytopenia induced by γ-irradiation. We depleted platelets by administering anti-CD41 antibody daily at 0.1 mg/kg body weight from day 0 to day 7 to create a commonly used animal model of ITP. Katsman et al., Transfusion 50, 1285-1294 (2010). […] LLL lifted the nadir effectively after only two treatments (day 4) and greatly accelerated a recovery of platelet counts in the presence of anti-CD41 antibody, although platelet counts were rebound in all the mice eventually owing to compensatory thrombopoiesis (FIG. 6A). Bleeding time was also normalized on day 5 in LLL-treated animals (FIG. 6B). […]

PPF-MKs = conditions: Richardson et al., Blood 2005; cited from earlier work
5-FU-treated mice = test: platelet production in vivo in 5-FU-induced thrombocytopenia with mito-drugs; parameters: species or system B6 mice; conditions: 100 mg/kg gavage twice a day for 4 days
Description: FIG. 10 provides a graph showing the enhancement of plt production by mito-drugs in vivo. All mice were treated with two doses of 5-FU (FU), along with an indicated mito-drug or LLLT for 4 consecutive days (red arrow). *, p<0.05, **, p<0.01 and ***, p<0.001 in the presence or absence of indicated drugs or LLLT. n=10 in each group.
The 5-FU-treated mice were gavaged with BEZ or Res at 100 mg/kg body weight or vehicle control twice a day for 4 consecutive days starting at 6 hr after the first 5-FU injection. For comparison, 5-FU-treated mice were also administered LLL daily for 4 consecutive days in parallel. […] Whether or not a higher dose or dosage of BEZ can further increase the efficacy remains to be investigated.

MKs [2] = test: platelet production from LLL-treated MKs with Oligomycin A in MK medium; assay type: cell-based, mouse; conditions: 5 μg/ml in MK medium
Description: (§1) FIGS. 1A-1H provide graphs and images showing LLL promotes MK maturation and platelet production. (A) Illustration of time lines of ex vivo platelet differentiation from MKs. CD41+ FSC^high MKs were sorted from BM cells, treated with or without LLL, and cultured in MK medium. MKs were collected 1 hr later for cellular ATP measurement (B), 1 day for studying proplatelet formation (C-F) or 3 days for counting platelets (G). (B) ATP was measured in 5×10^4 MKs treated with LLL at various energy densities. (C) Sizes of CD41+ MKs were analyzed by flow cytometric analysis of forward/side scatter (FSC) before and after 24 hr differentiation. (D) Representative transmission electron micrographs of MKs from at least 6 samples per group with 30 cells in each group. N, nuclear; IMS, invaginated membrane system. […] (F) The numbers indicated percentages of small or large PPF-MKs of at least 500 MKs analyzed per sample and 6 samples per group. ###P<0.001, large PPF-MKs and **P<0.01, total PPF-MKs compared between the two groups. […]
(§2) FIGS. 2A-2H provide graphs and images showing the thrombopoietic effect of LLL is ATP-dependent. (A) Correlations between MK ATP levels at 1 hr post-LLL and platelets measured in 3 days later are analyzed by coefficient of determination. […] Mitochondrial membrane potential of CD41+ FSC^high MKs was determined by flow cytometric analysis of red J-aggregate fluorescence at 590 nm. […]

MKs [3] = test: ATP measurement in MKs with Oligomycin A; assay type: cell-based, mouse; conditions: 5 μg/ml
Description: as §1, §2

Mouse MKs = test: platelet production ex vivo from MKs in the presence of mito-drugs; assay type: cell-based; conditions: for platelet generation from MKs ex vivo: Bezafibrate 400 μM, Resveratrol 50 μM, SRT1720 0.1 μM, AICAR 500 μM, MK medium for 3 days, compared to controls
Description: FIG. 9 provides a graph showing enhancement of platelet production ex vivo by mito-drugs. C. control; Bez, Bezafibrate (400 μM); Res, Resveratrol (50 μM); SRT1720, 0.1 μM; Aicar, AICAR (500 μM); LLL, 810 nm 3 J/cm^2. Mouse MKs were differentiated in MK medium for 3 days in the presence of an indicated drug or after LLLT. **, p<0.01 and ***, p<0.001 compared to controls. n=6.
Some mito-drugs tested enhance platelet production from MKs ex vivo. […] The concentration used for individual drugs is the one commonly used for inducing PGC-1α expression in other cell cultures except for SRT1720 that was used at a 100× lower concentration. […] Perhaps, the concentration of each drug can be further optimized for enhancing platelet production.

IEX-1-deficient mice = conditions: Ramsey et al., Platelets 2015; cited from earlier work

diminished circulating platelet counts [1]: 43%
Compound: O=c1[nH]cc(F)c(=O)[nH]1 [5-FU, 5-fluorouracil]

Compound: Nc1ncnc2c1ncn2[C@@H]1O[C@H](COP(=O)(O)OP(=O)(O)OP(=O)(O)O)[C@@H](O)[C@H]1O [ATP]
proplatelet elongation (PPF-MKs): activated proplatelet elongation | proplatelet growth (PPF-MKs): significantly enhanced proplatelet growth

Compound: CC(C)(Oc1ccc(CCNC(=O)c2ccc(Cl)cc2)cc1)C(=O)O [BEZ, bezafibrate]
platelet counts sustained (5-FU-treated mice; 5-FU 120 and 90 mg/kg on days 1 and 4): ≥ 70 % the normal value

Compound: CC[C@@H]1/C=C/C=C/C[C@H](C)[C@H](O)[C@](C)(O)C(=O)[C@H](C)[C@@H](O)[C@H](C)C(=O)[C@H](C)[C@@H](O)[C@H](C)/C=C/C(=O)O[C@H]2[C@@H](C)[C@@H](CC1)O[C@@]1(CC[C@@H](C)[C@@H](C[C@H](C)O)O1)[C@@H]2C [Oligomycin A]
LLL-mediated enhancement of platelet generation (MKs [2]): severely blunted | ATP synthesis in the cells (MKs [3]): reduces ATP synthesis

Compound: O=C(Nc1ccccc1-c1cn2c(CN3CCNCC3)csc2n1)c1cnc2ccccc2n1 [SRT1720]
platelet generation from MKs ex vivo (Mouse MKs): enhance platelet generation from MKs ex vivo significantly | platelet production (Mouse MKs; higher concentration of SRT1720 (than 0.1 μM)): did not increase platelet production significantly

Compound: COC1=C(OC)C(=O)C(CCCCCCCCCC[P+](c2ccccc2)(c2ccccc2)c2ccccc2)=C(C)C1=O [mitoquinone]
thrombocytopenia in IEX-1-deficient mice (IEX-1-deficient mice): completely reverse thrombocytopenia

Compound: Oc1ccc(C=Cc2cc(O)cc(O)c2)cc1 [resveratrol]
efficacy compared to BEZ or LLLT (5-FU-treated mice; 5-FU-treated mice): relatively weak | nadir of platelet counts (5-FU-treated mice; 5-FU-treated mice): lifted the nadir significantly | platelet biogenesis (5-FU-treated mice; 5-FU-treated mice): augmented platelet biogenesis | platelet generation from MKs ex vivo (Mouse MKs): enhance platelet generation from MKs ex vivo significantly
